Source: paper PMC12584752, “Covalent fragment screening to inhibit the E3 ligase activity of bacterial NEL enzymes SspH1 and SspH2” (RSC Chemical Biology, 2025)

Columns and labels:
SspH1 (C492) = biological target: T1, SspH1 (C492) (Salmonella typhimurium, UniProt D0ZVG2); test: IA-DTB competitive chemoproteomics in spiked HEK293T lysate; format: binding; conditions: HEK293T lysate spiked with recombinant protein, four hours at RT
T1 construct: Recombinant IpaH9.8 (21–545) and SspH1 (161–700) were incubated at 0.5 μM; His-tag (N, cleaved yes); made in house; host or cells: E. coli BL21
Method: (§1) HEK293T lysate supplemented with recombinant SspH1 (161–700) and SspH2 (166–783) was treated with a dilution series […] of either compound 6 or 7 for four hours at RT. Following compound treatments, we used an iodoacetamide-desthiobiotin (IA-DTB) competitive chemoproteomics workflow to assess cysteine engagement.[52] Comparison of DMSO treated lysate with compound treated lysate enabled identification of peptides where IA-DTB labelling of cysteines was blocked due to fragment engagement (Fig. S5). […] Competition of the SspH2 C580 peptide occurred at lower concentrations compared to the SspH1 C492 peptide, which corroborated our previous kinetics experiments that both compounds label SspH2 faster than SspH1 (Fig. S4).
(§2) Fig. 5 Characterisation of protein interactions by compounds 6 and 7. (A) SspH1 and SspH2 catalytic cysteine labelling with compound 6 (100–3.125 μM, 4 hours) in HEK293T lysate spiked with recombinant SspH1 and SspH2. Data are presented as mean ± SEM, n = 4. The curves were fitted with GraphPad Prism 10 using four parameter nonlinear regression with baseline correction to DMSO-treated samples. (B) SspH1 and SspH2 catalytic cysteine labelling with compound 7 (100–3.125 μM, 4 hours) in HEK293T lysate spiked with recombinant SspH1 and SspH2. Data are presented as mean ± SEM, n = 4. The curves were fitted with GraphPad Prism 10 using four parameter nonlinear regression with baseline correction to DMSO-treated samples. (C) Volcano plot of IA-DTB competition in SspH1 expressing HEK293T cells treated with compound 6 (50 μM, 4 hours). (D) Volcano plot of IA-DTB competition in SspH2 expressing HEK293T cells treated with compound 6 (50 μM, 4 hours). Data is shown as compared to DMSO treated samples, with competed peptides in the upper left-hand quadrant. Competed catalytic cysteine-containing peptides of HECT E3s (yellow), UCH DUBs (blue) and OTU DUBs (purple) are indicated. All proteomics experiments were performed with technical quadruplicates.
(§3) A pellet of 50 × 10^6 HEK293T cells was resuspended in 5 mL lysis buffer (50 mM HEPES pH 8.0, 150 mM NaCl, 1% IGEPAL, 0.1% SDS, 0.5% Na-deoxycholate, supplemented with protease inhibitor cocktail (Sigma-Aldrich, P8340)). The lysate was sonicated and centrifuged (10 min, 17 000 × g) and the soluble fraction isolated. Protein concentrations were measured using a Rapid BCA Gold Protein Assay Kit (Thermo Scientific, A53226) and diluted to 0.75 mg mL^−1 with lysis buffer. The lysate was then spiked with 0.2 μM of each recombinant SspH1 (aa 161–700) and SspH2 (aa 166–783). For each condition, four wells were treated and processed separately, representing four technical replicates. 2 μL of 100× stocks of compounds 6 and 7 in DMSO (10–0.156 mM, and DMSO only control), and 200 μL lysate was added to a 96-well plate. […]

SspH2 (C580) = biological target: T2, SspH2 (C580) (Salmonella typhimurium, UniProt D0ZPH9); test: as above; format: binding; conditions: HEK293T lysate spiked with recombinant protein, four hours at RT
T2 construct: Recombinant SspH1 (aa 161–700) and SspH2 (aa 166–783) were both characterised; His-tag (N, cleaved yes); made in house; host or cells: E. coli BL21
Method: as §1, §2, §3

T2 sequence (D0ZPH9 166-783): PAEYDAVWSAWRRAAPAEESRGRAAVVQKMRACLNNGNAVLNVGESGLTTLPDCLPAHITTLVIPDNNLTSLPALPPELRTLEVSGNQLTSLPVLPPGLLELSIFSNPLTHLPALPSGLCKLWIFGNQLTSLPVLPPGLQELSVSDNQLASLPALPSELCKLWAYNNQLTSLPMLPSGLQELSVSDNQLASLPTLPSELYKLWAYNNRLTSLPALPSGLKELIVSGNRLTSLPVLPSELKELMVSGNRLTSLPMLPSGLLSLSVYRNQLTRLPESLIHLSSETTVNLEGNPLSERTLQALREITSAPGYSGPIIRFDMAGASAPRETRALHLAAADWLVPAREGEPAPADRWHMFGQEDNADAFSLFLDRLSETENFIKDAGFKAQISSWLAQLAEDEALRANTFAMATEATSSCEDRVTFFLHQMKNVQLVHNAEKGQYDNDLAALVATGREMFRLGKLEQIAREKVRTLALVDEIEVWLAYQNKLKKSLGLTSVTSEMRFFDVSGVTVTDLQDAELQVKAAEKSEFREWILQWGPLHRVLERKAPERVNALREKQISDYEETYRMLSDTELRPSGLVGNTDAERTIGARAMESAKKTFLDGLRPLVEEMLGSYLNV
T1 sequence (D0ZVG2 161-700): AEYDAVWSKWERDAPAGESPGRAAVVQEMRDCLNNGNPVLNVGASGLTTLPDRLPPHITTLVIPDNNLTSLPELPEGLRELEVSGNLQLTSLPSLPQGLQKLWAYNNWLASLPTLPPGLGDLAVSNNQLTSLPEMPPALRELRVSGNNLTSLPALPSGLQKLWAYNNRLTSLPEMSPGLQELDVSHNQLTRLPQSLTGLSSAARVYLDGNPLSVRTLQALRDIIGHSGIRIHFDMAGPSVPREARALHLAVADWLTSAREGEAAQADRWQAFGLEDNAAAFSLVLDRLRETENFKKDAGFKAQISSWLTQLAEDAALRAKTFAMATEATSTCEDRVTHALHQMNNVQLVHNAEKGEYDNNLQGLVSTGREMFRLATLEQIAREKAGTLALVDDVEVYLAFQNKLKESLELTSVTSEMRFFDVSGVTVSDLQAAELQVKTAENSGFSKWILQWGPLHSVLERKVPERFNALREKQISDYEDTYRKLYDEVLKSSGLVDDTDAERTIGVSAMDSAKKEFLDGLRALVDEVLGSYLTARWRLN

| SMILES | competition of IA-DTB labelling of the C492 peptide for SspH1 (SspH1 (C492)) | competition of IA-DTB labelling of the C580 peptide for SspH2 (SspH2 (C580)) |
| --- | --- | --- |
| Cc1cc(-c2nc3ccccc3n2C2CCN(C(=O)CCl)CC2)cc(C)c1O.Cl [compound 6] | concentration-dependent competition | concentration-dependent competition |
| Cl.O=C(CCl)N1CCC(n2c(-c3ccc(C(F)(F)F)cc3)nc3ccccc32)CC1 [compound 7] | concentration-dependent competition | concentration-dependent competition |
